Earlier results, collected in patent publication US20220395489A1, “THERAPEUTIC APPROACH FOR TREATING INFLAMMATORY BOWEL DISEASE” (THE REGENTS OF THE UNIVERSITY OF CALIFORNIA, priority 2019, published 2022).
Non-standard residues stand in square brackets, D forms with d. Residues, ends and D or L forms follow the SMILES beside them. *: point of attachment. Sta = CC(C)C[C@H](N)[C@@H](O)CC(=O)O; Isovaleryl = CC(C)CC(=O)*

Legend:
[1] = water
[2] = low pH values, compared with PMSF

SMILES	solubility [1]	stability [2]	ability to inhibit pepsin (pepsin)
Cl.NCCc1ccc(S(=O)(=O)F)cc1 [AEBSF, 4-(2-aminoethyl)benzenesulfonyl fluoride hydrochloride]	water-soluble	more stable	–
CC(C)CC(=O)N[C@H](C(=O)N[C@H](C(=O)N[C@@H](CC(C)C)[C@@H](O)CC(=O)N[C@@H](C)C(=O)N[C@@H](CC(C)C)[C@@H](O)CC(=O)O)C(C)C)C(C)C [Pepstatin, Isovaleryl-Val-Val-Sta-Ala-Sta] (Isovaleryl-VV[Sta]A[Sta]-OH)	–	–	picomolar concentrations
